What was measured:
[1] = tested on: NT2/D1 cells; assay: Cell-Titre Glo viable cell growth and survival, 3 day decitabine; type: cell-based; conditions: NT2/D1
Procedure: Indicated doses of decitabine were added fresh each day for three days to exponentially growing cultures. Viable cell growth and survival were measured. Data are normalized to no drug treatment. EC cells are NT2/D1, NT2D1/R1, 833K, 833KCP, and Tera-1. Data are the average of 3 experiments in biological duplicate except for MCF-7 cells, which were assayed twice. Error bars are standard deviation (S.D.).
Cell growth and viability of five EC cell lines (NT2/D1, NT2D1/R1, 833K, 833KCP, and Tera-1) were determined, including two cell lines that are cisplatin-resistant (NT2/D1-R1 and 833KCP). Three control somatic tumor cell lines were also tested (HCT116, MCF7 and U2OS). […] Viable cell growth and survival were measured using Cell-Titre Glo (Promega) assays. […] These higher values are similar to the values shown in FIG. 1 for somatic tumor cell lines (MCF7, U2OS and HCT116).
NT2/D1, NT2D1-R1, 833K, 833K-CP, Tera-1, U20S, and HCT116 cells were cultured in DMEM with 10% FBS supplemented with glutamine and antibiotics except for MCF7 cells that were cultured in F12-DMEM. The derivation of the NT2/D1-resistant NT2/D1-R1 cell line has been previously described (Curtin et al. 2001. Oncogene 20:2559-2569; Kerley-Hamilton et al. 2007. Biochim. Biophys. Acta 1769:209-219). Cells were treated with the indicated dosages of 5-azadeoxycytidine (5-aza-CdR) for 3 days. This drug was replenished each day. Cisplatin (Bristol Laboratories) treatments were performed at the concentrations and time points indicated. To assess cell proliferation and survival, CELL-TITRE GLO (Promega) assays were performed.
(§1) Cells were cultured in DMEM media (Gibco) with 10% FBS. Decitabine was added fresh each day. Lentiviral control cells and the stable shRNA DNMT3B knockdown cell line (NT2/D1-R1-sh84) were described previously (Beyrouthy et al. 2009. Cancer Res. 69:9360-9366). DNMT3B knockdown was greater than 90% as confirmed by western blot analysis. Cell proliferation and survival were assessed with the CELL-TITRE GLO assay (Promega). Cell cycle analysis with propidium iodine has been previously described (Kerley-Hamilton et al. 2005. Oncogene 24:6090-6100).

[2] = tested on: NT2/D1 cells; assay: Apoptosis by PARP cleavage and sub G1 DNA content; type: cell-based; conditions: cisplatin 0.5 μM; NT2/D1 versus NT2/D1-R1
Procedure: as §1
(§2) SYBR green-based real-time PCR (Applied Biosystems) was employed using the ddCT method normalized to GAPDH. For western blot analysis cells were lysed in radioimmune precipitation buffer and separated by SDS-PAGE. Antibodies to actin (sc01615, Santa Cruz), 139-H2AX (Cell Signaling), PARP (c-2-10, Biomol International) and p53 (D0-1, Santa Cruz) were used.

[3] = tested on: NT2/D1-R1 cells; assay: Apoptosis by PARP cleavage and sub G1 DNA content; type: cell-based; conditions: cisplatin; cisplatin-resistant NT2/D1-R1
Procedure: (§3) Importantly, decitabine-mediated H2AX activation also occurs in the presence of the caspase 3 inhibitor (Z-VAD-FMK) at concentrations that inhibit PARP cleavage.
as §1, §2

[4] = tested on: phosphorylated H2AX in NT2/D1-R1 cells; assay: DNA damage by induction of phosphorylated H2AX (western blot); type: cell-based; conditions: cisplatin
Source text: as §3, §2

[5] = tested on: NT2/D1 cells; assay: Gene expression microarray with PAM cluster analysis (Tables 1-5); type: cell-based, human
Procedure: The cisplatin treatment protocol has been previously described (Kerley-Hamilton et al. 2005. Oncogene 24:6090-6100).
The same effect was not observed in cells treated with cisplatin; gene expression levels were not dramatically altered in cisplatin-treated cells. […] The genes clustered into distinct patterns.
Next, partitioning around medoids (PAM) analysis was performed on the 1130 genes whose expression levels changed by 1.5-fold or greater as compared to control treatment. […] Changes in gene expression levels of representative genes for each cluster were confirmed in independent samples by real-time PCR (FIG. 10).
(§4) Expression analysis was performed on the […] HumanHT-12 v3 or […] HumanHT-12 v4 bead chip arrays ([…]) and scanned on the BeadArray Reader ([…]) according to manufacturer's instructions.

[6] = tested on: NT2 cells; assay: Gene set enrichment analysis (GSEA) of microarray data (Table 6); type: cell-based, human; conditions: Gene Sets Enriched in NT2 Cells with Cisplatin Treatment (0.5 μM for 3 days)
Procedure: Gene set enrichment analysis (GSEA) was performed.
as §4

## N.N.[Cl][Pt][Cl] [cisplatin]
[1]; after 1 day of cisplatin treatment
  effects on cell viability and proliferation: minimal
[1]; by day two of cisplatin treatment
  effects on cell viability and proliferation: robust anti-proliferation and cell death effects
[2]
  apoptotic responses (PARP cleavage, sub G1 DNA content): induces these responses only in cisplatin-sensitive NT2/D1 cells
[3]
  PARP cleavage: does not induce PARP cleavage
[4]
  induction of phospho-H2AX: can induce phospho-H2AX
[5]; 0.5 μM cisplatin 6 hours, 24 hour recovery
  Cluster 2: unique genes whose expression levels were increased only by cisplatin treatment: 81 genes
[5]; 1.5-fold or greater
  Cluster 3: genes upregulated by both decitabine treatment and cisplatin treatment: 71 genes
  Cluster 5: genes down-regulated by both decitabine treatment and cisplatin treatment: 88 genes
[6]
  NES, AMIT_EGF_RESPONSE_120_MCF10A: −2.2779
  NES, AMIT_EGF_RESPONSE_480_HELA: −2.5999
  NES, AMUNDSON_DNA_DAMAGE_RESPONSE_TP53: −2.2828
  NES, CONCANNON_APOPTOSIS_BY_EPOXOMICIN_UP: −2.2899
  NES, DACOSTA_UV_RESPONSE_VIA_ERCC3_UP: −2.3411
  NES, INGA_TP53_TARGETS: −2.3095
  NES, KANNAN_TP53_TARGETS_UP: −2.5961
  NES, KERLEY_RESPONSE_TO_CISPLATIN_UP: −3.0393
  NES, SCHAVOLT_TARGETS_OF_TP53_AND_TP63: −2.4114
  NES, WEIGEL_OXIDATIVE_STRESS_RESPONSE: −2.3010

— patent US9476099B2 (TRUSTEES OF DARTMOUTH COLLEGE, priority 2012, dated 2016)
